Literature values, collected in patent publication US20230310417A1, “INJECTABLE ARIPIPRAZOLE FORMULATION” (CIPLA LIMITED, priority 2020, published 2023).

Conditions: room temperature

For `O=C1CCc2ccc(OCCCCN3CCN(c4cccc(Cl)c4Cl)CC3)cc2N1` [Aripiprazole], the aqueous solubility is listed as < 1 µg/mL.
